Source: patent US10927107B2, “Phenyl [a]indole[2,3-g]quinolizine compounds, preparation method therefor, pharmaceutical composition, and applications thereof” (Shanghai Institute of Materia Medica, Chinese Academy of …, priority 2016, dated 2021)
Read-outs that look alike come from different tables or passages of the source. Blank lines part the entries; values can stand above or below the compound they belong to.

Experiments:
HepG2 cells = experiment: In vitro lipid-lowering activity: DiI-LDL uptake in HepG2 cells; type: cell-based; settings: Homo sapiens, test compound 5 uM, 24 h, DiI-LDL 20 ug/ml, 3 h, FLU of sample group/FLU of blank group x100%, read-out: LDL uptake rate
Experimental: HepG2 cells were inoculated in 24-well plates, cultured in DMEM containing 10% FBS for 24 h or 48 h, and then transferred to DMEM containing 2% defatted serum and cultivated for 24 h. The old culture solution was discarded and replaced with new 2% defatted serum DMEM, and a test compound (the working concentration of which is 5 uM, triplicate for each sample) was added and incubated for 24 h. The old culture solution was abandoned and DMEM containing DiI-LDL (20 ug/ml) was added (300 ul/per 24 wells), incubated for 3 h. DMEM containing DiI-LDL was discarded, and cells were rinsed twice with PBS containing 0.4% BSA, and 3 times with PBS to remove excess DiI-LDL. Isopropanol was added (500 ul/per well of a 24-well plate), and was kept in darkness. After shaken for 20 minutes, 200 ul of supernatant was sucked to a black fluorescent plate, and fluorescence intensity (FLU) was detected at excitation light 520 nm and emission light 578 nm. The experimental results were calculated: LDL uptake rate=(FLU value of sample group to be tested/FLU value of blank group)×100%.

[1] = test system: Syrian golden hamsters (high-fat diet, hyperlipidemia model); experiment: In vivo lipid-lowering activity in high-fat diet golden hamsters; design: species or system Syrian golden hamster; settings: for CHOL / HDL-C / LDL-C / TG: high-fat diet, serum; for contents of cholesterol (CHOL), triglyceride (TG) and low density lipoprotein (LDL-C) in the blood: hyperlipidemia model
Experimental: After adaptively feeding Syrian golden hamsters (male, 80-100 g) for a week, all hamsters were fed with high-fat diet. Two weeks later, blood was collected from the orbital venous plexus, serum was separated, and levels of total cholesterol (TC), triglyceride (TG), high-density lipoprotein (HDL-C) and low-density lipoprotein (LDL-C) in serum were measured. They were evenly grouped according to blood lipid levels into […]: model control group, A1 intragastric administration group, A1 intraperitoneal administration group, A5 intragastric administration group, A5 intraperitoneal administration group, A55 intragastric administration group, A55 intraperitoneal administration group, B5 intragastric administration group, B5 intraperitoneal administration group, and the animals in each group were continued to be administered with high fat diet. […] […] Blood lipid levels and body weights were measured every 10 days. After three weeks, the animals were sacrificed and the liver was stored in a −80° C. refrigerator.

Rat pharmacokinetics = type: in vivo; design: AUC(0-t) / AUC(0-inf): concentration or dose not given beside the values; settings: plasma; for AUC(0-inf): read-out: AUCINF—obs; for clearance: read-out: CL—obs (converted); for MRT inf: read-out: MRTINF—obs; for Vd: read-out: Vss—obs
Experimental: (§1) A1 10 μL of a plasma sample was taken in a centrifuge tube and 100 μL of methanol:acetonitrile (1:1, v/v) was added, vortexed for 1 min, centrifugated (14000 rpm) for 5 min, and 50 μL supernatant was taken, mixed with equal volume of water, and analysised after vortex mixing. The linear range of A1 is: 0.1-300 ng/mL for oral administration and 1-3000 ng/mL for intravenous injection.
as §1, with “A55” for “A1”, “0.3-3000” for “1-3000”

[2] = molecular target: T1, α1A-adrenergic receptor (α1A-AR) (Homo sapiens, UniProt P35348); experiment: Antagonistic activity on α1A-AR: calcium fluorescence in HEK293 cells stimulated with phenylephrine; type: cell-based
T1 construct: expressed in transfected cells; host or cells: HEK293
T1 sequence (P35348 1-466): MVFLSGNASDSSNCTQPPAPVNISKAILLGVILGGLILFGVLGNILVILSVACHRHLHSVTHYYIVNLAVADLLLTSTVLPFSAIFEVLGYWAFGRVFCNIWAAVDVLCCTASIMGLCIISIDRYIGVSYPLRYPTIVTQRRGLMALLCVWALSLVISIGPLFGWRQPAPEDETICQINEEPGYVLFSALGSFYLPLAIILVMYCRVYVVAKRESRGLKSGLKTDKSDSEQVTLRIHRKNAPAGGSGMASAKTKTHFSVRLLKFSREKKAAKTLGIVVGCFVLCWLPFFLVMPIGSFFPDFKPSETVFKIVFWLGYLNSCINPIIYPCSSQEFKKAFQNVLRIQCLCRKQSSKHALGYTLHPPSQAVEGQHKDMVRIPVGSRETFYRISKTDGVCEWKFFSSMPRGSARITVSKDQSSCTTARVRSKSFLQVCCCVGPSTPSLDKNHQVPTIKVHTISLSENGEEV
Experimental: HEK293 cells stably expressing α1A-adrenergic receptor (α1A-AR) and G protein […] were seeded in 96-well plates. After 24 hours of culture, the medium was removed, and 40 μL of Hank's balanced salt solution (HBSS: containing 5.4 mM KCl, 0.3 mM Na2HPO4, 0.4 mM KH2PO4, 4.2 mM NaHCO3, 1.3 mM CaCl2, 0.5 mM MgCl2, 0.6 mM MgSO4, 137 mM NaCl, 5.6 mM D-glucose and 250 μM sulfinpyridone, pH 7.4) containing 2 μM of MFluo-4AM was added to each well, and incubated for 45 minutes in an incubator. The dye was aspirated and 50 μL of HBSS containing a test compound or 1% DMSO (negative control) was added and incubated for 10 minutes at room temperature, and then read with Flex Station 3 microplate reader. At the specified time point, 25 μL of agonist phenylephrine (final concentration 30 nM) will be automatically added by the detector into the reaction system, and simultaneously stimulated with 485 nm light, and the change in intensity of fluorescence caused by the change in the intracellular calcium ion concentration was detected at 525 nm. […] The response rate of different doses of the same drug was analyzed by GraphPad Prism software to obtain a dose-response curve and the IC50 value was measured. Each experiment was performed in […].

[3] = abdominal (intraperitoneal) 30 mg/kg once a day for three weeks
[4] = oral (intragastric) 30 mg/kg once a day for three weeks
[5] = HEK293 cells expressing α1A-AR, agonist phenylephrine 30 nM, calcium fluorescence, read-out: α1A-AR/IC50

Structure (SMILES): COc1ccc2c(c1)c1c(n2CO)CN2CCc3cc(OC)c(OCc4ccccc4)cc3C2C1 (centres unmarked) [Example A1, (2-(Benzyloxy)-3,12-dimethoxy-5,6,14,14a-tetrahydroindolo[3′,2′:4,5]pyridine[2,1-a]isoquinoline-9(8H)-yl)methanol]
- activity at 5 µM (HepG2 cells): 148%
- CHOL [1, 3]: 9.75 mmol/L
- HDL-C [1, 3]: 1.63 mmol/L
- LDL-C [1, 3]: 5.25 mmol/L
- TG [1, 3]: 8.16 mmol/L
- CHOL [1, 4]: 27.93 mmol/L
- HDL-C [1, 4]: 2.56 mmol/L
- LDL-C [1, 4]: 13.64 mmol/L
- TG [1, 4]: 28.61 mmol/L
- contents of cholesterol (CHOL), triglyceride (TG) and low density lipoprotein (LDL-C) in the blood [1]: significantly reduced
- AUC(0-t) (Rat pharmacokinetics; iv): 1910 ng·h/mL
- Cmax (Rat pharmacokinetics; iv): 1110 ng/mL
- Tmax (Rat pharmacokinetics; iv): 0.083 h
- half-life (Rat pharmacokinetics; iv): 2.58 h
- AUC(0-inf) (Rat pharmacokinetics; iv): 1980 ng·h/mL
- clearance (Rat pharmacokinetics; iv): 84.2 mL/min/kg
- MRT inf (Rat pharmacokinetics; iv): 3.3 h
- Vd (Rat pharmacokinetics; iv): 16.6 L/kg
- AUC(0-t) (Rat pharmacokinetics; po): 776 ng·h/mL
- Cmax (Rat pharmacokinetics; po): 159 ng/mL
- Tmax (Rat pharmacokinetics; po): 6 h
- bioavailability (Rat pharmacokinetics; po): 20.3%

Structure (SMILES): COc1ccc2c(c1)c1c(n2CO)CN2CCc3cc(OC)c(OCc4ccc(F)cc4)cc3C2C1 (centres unmarked) [Example A5, (2-((4-fluorobenzyl)oxy)-3,12-dimethoxy-5,6,14,14a-tetrahydroindolo[3′,2′:4,5]pyridine[2,1-a]isoquinoline-9(8H)-yl)methanol]
- activity at 5 µM (HepG2 cells): 156%
- CHOL [1, 3]: 11.36 mmol/L
- HDL-C [1, 3]: 1.77 mmol/L
- LDL-C [1, 3]: 6.16 mmol/L
- TG [1, 3]: 13.26 mmol/L
- CHOL [1, 4]: 15.32 mmol/L
- HDL-C [1, 4]: 4.01 mmol/L
- LDL-C [1, 4]: 7.44 mmol/L
- TG [1, 4]: 15.46 mmol/L
- contents of cholesterol (CHOL), triglyceride (TG) and low density lipoprotein (LDL-C) in the blood [1]: significantly reduced

Structure (SMILES): COc1ccc2c(c1)c1c(n2CO)CN2CCc3cc(OCc4ccccc4)c(OC)cc3C2C1 (centres unmarked) [Example A55, (3-(Benzyloxy)-2,12-dimethoxy-5,6,14,14a-tetrahydroindolo[3′,2′:4,5]pyridine[2,1-a]isoquinoline-9(8H)-yl)methanol]
- activity at 5 µM (HepG2 cells): 194%
- CHOL [1, 3]: 17.86 mmol/L
- HDL-C [1, 3]: 2.98 mmol/L
- LDL-C [1, 3]: 9.39 mmol/L
- TG [1, 3]: 19.77 mmol/L
- CHOL [1, 4]: 11.81 mmol/L
- HDL-C [1, 4]: 3.88 mmol/L
- LDL-C [1, 4]: 5.56 mmol/L
- TG [1, 4]: 6.74 mmol/L
- contents of cholesterol (CHOL), triglyceride (TG) and low density lipoprotein (LDL-C) in the blood [1]: significantly reduced
- AUC(0-t) (Rat pharmacokinetics; iv): 2720 ng·h/mL
- Cmax (Rat pharmacokinetics; iv): 2740 ng/mL
- Tmax (Rat pharmacokinetics; iv): 0.083 h
- half-life (Rat pharmacokinetics; iv): 1.88 h
- AUC(0-inf) (Rat pharmacokinetics; iv): 2730 ng·h/mL
- clearance (Rat pharmacokinetics; iv): 61 mL/min/kg
- MRT inf (Rat pharmacokinetics; iv): 1.7 h
- Vd (Rat pharmacokinetics; iv): 6.41 L/kg
- AUC(0-t) (Rat pharmacokinetics; po): 334 ng·h/mL
- Cmax (Rat pharmacokinetics; po): 62 ng/mL
- Tmax (Rat pharmacokinetics; po): 4 h
- bioavailability (Rat pharmacokinetics; po): 6.2%
- half-life (Rat pharmacokinetics; po): 0.71 h
- AUC(0-inf) (Rat pharmacokinetics; po): 335 ng·h/mL
- MRT inf (Rat pharmacokinetics; po): 4.8 h

Structure (SMILES): COc1ccc2c(c1)c1c(n2CO)CN2CCc3cc(OCc4cccc(F)c4)c(OC)cc3C2C1 (centres unmarked) [Example A61, (3-((3-fluorobenzyl)oxy)-2,12-dimethoxy-5,6,14,14a-tetrahydroindolo[3′,2′:4,5]pyridine[2,1-a]isoquinoline-9(8H)-yl)methanol]
- activity at 5 µM (HepG2 cells): 165%
- IC50 [2, 5]: 4.53 µM
- TC ([1]; Dose 30, oral): 37.11 ± 11.19 mmol/L
- TC ([1]; Dose 100, oral): 22.57 ± 6.37 mmol/L

Structure (SMILES): COc1ccc2c(c1)c1c(n2CO)CN2CCc3cc(OCc4ccccc4F)c(OC)cc3C2C1 (centres unmarked) [Example A63, (3-((2-fluorobenzyl)oxy)-2,12-dimethoxy-5,6,14,14a-tetrahydroindolo[3′,2′:4,5]pyridine[2,1-a]isoquinoline-9(8H)-yl)methanol]
- activity at 5 µM (HepG2 cells): 138%
- IC50 [2, 5]: 57.7 µM

Structure (SMILES): COc1ccc2c(c1)c1c(n2CO)CN2CCc3cc(OCc4ccc(C)cc4)c(OC)cc3C2C1 (centres unmarked) [Example A69, (2,12-Dimethoxy-3-((4-methylbenzyl)oxy)-5,6,14,14a-tetrahydroindolo[3′,2′:4,5]pyridine[2,1-a]isoquinoline-9(8H)-yl)methanol]
- activity at 5 µM (HepG2 cells): 140%
- IC50 [2, 5]: > 100 µM

Structure (SMILES): COc1ccc2[nH]c3c(c2c1)CC1c2cc(OCc4ccccc4F)c(OC)cc2CCN1C3 (centres unmarked) [Example C9, 2-((2-Fluorobenzyl)oxo)-3,12-dimethoxy-5,6,8,9,14,14a-hexahydroindole[3′,2′:4,5]pyridine[2,1-a]isoquinoline]
- TC ([1]; Dose 30, oral): 36.87 ± 23.13 mmol/L

Structure (SMILES): COc1cc2c(cc1OCc1cccc(C)c1)CCN1Cc3[nH]c4ccccc4c3CC21 (centres unmarked) [Example C107, 2-methoxy-3-((3-methylbenzyl)oxo)-5,6,8,9,14,14a-hexahydroindolo[3′,2′:4,5]pyridine[2,1-a]isoquinoline]
- activity at 5 µM (HepG2 cells): 69.5%

Structure (SMILES): CCOc1ccccc1OCCN[C@H](C)Cc1ccc(OC)c(S(N)(=O)=O)c1 [Positive control, Tamsulosin, reference compound]
- activity at 5 µM (HepG2 cells): 138%

Now from value to compound, other results behind:

- IC50 [2, 5]: > 100 µM
Structure (SMILES): COc1ccc2[nH]c3c(c2c1)CC1c2cc(OC)c(OCc4ccccc4)cc2CCN1C3c1ccc(F)cc1 (centres unmarked) [Example B55, 3-(benzyloxy)-8-(4-fluorophenyl)-2,12-dimethoxy-5,6,8,9,14,14a-hexahydroindole[3′,2′:4,5]pyridine[2,1-a]isoquinoline]
- activity at 5 µM (HepG2 cells): 125%

- IC50 [2, 5]: 6.58 µM
- IC50 ([2]; statement in text on Table 2, read-out: antagonistic activity to α1A-AR): < 10 µM
Structure (SMILES): COc1ccc2[nH]c3c(c2c1)CC1c2cc(OC)c(OCc4ccc(F)cc4)cc2CCN1C3 (centres unmarked) [Example C49, 3-((4-Fluorobenzyl)oxo)-2,12-dimethoxy-5,6,8,9,14,14a-hexahydroindole[3′,2′:4,5]pyridine[2,1-a]isoquinoline]
- activity at 5 µM (HepG2 cells): 194%

- IC50 [2, 5]: 17.5 µM
Structure (SMILES): COc1ccc2[nH]c3c(c2c1)CC1c2cc(OC)c(OCc4ccccc4F)cc2CCN1C3 (centres unmarked) [Example C53, 3-((2-Fluorobenzyl)oxo)-2,12-dimethoxy-5,6,8,9,14,14a-hexahydroindole[3′,2′:4,5]pyridine[2,1-a]isoquinoline]
- activity at 5 µM (HepG2 cells): 112%

- IC50 [2, 5]: > 100 µM
Structure (SMILES): COc1ccc2[nH]c3c(c2c1)CC1c2cc(OC)c(OCc4ccc(C)cc4)cc2CCN1C3 (centres unmarked) [Example C59]
- activity at 5 µM (HepG2 cells): 147%
